Data published in PMC7309560, “Discovery of Small Molecule Inhibitors Targeting the Sonic Hedgehog” (Frontiers in Chemistry, 2020).
Read-outs that look alike come from different tables or passages of the source.

Tests used:
[1] = system: Hh signaling pathway (8 × Gli-binding site luciferase reporter, Shh-LIGHT2 cells); test: Dual-luciferase reporter assay in Shh-LIGHT2 cells; type: cell-based; details: for IC50: Shh Light2, 36 h, ShhN-conditioned medium, 36 h, mean ± SD for three independent experiments; for inhibition at 5 µM: read-out: Inhibition rate for cell assay at 5 μM
Description: A dual-luciferase reporter assay was performed as previously described (Zhan et al., [2014]; Kong et al., [2015]). Shh-LIGHT2 cells, an Hh activity reporter cell line derived from NIH-3T3 cells by stably expressing 8 × Gli-binding site luciferase reporter (8 × GBS-luciferase) plasmid provided by Sasaki et al. ([1999]) and pRL-Renilla luciferase plasmid, were seeded into 96-well plates. After 24 h, ShhN-conditioned medium (ShhN CM) was added, and cells were exposed to molecules. The luciferase activities of cells were measured 36 h later with a Dual-Luciferase Reporter Assay System (E1960, Promega), according to the manufacturer's instructions, in a luminometer (Molecular Devices, Sunnyvale, CA). The firefly luciferase values were normalized to the Renilla luciferase activities, and IC50 values were fitted with the Hill equation with OriginPro 9.
We further tested the 45 Shh-binding compounds to assess their effects on the Hh signaling pathway. […] Compounds with similar framework were merged, resulting in seven hits.
All 22 derivatives of 7 were tested at 5 μM with the dual-luciferase reporter cell assay (Table S6).

[2] = biological target: T1, ShhN-EGFP (Homo sapiens, UniProt Q15465); test: Microscale thermophoresis (MST) binding
T1 construct: PET-28(a)-human ShhN (Shh 24-197) plasmid; His (N); made in house; host or cells: Escherichia coli Rosetta (DE3)
Description: Chuanmao Zhang. EGFP gene was subcloned into pET-28(a)-human ShhN vector to build ShhN-EGFP plasmids. All mutations were introduced by PCR and confirmed by sequencing with GENEWIZ (China).
Measurements were performed using a Monolith NT. […] MST-optimized buffer (50 mM Tris·HCl, pH 7.4, 150 mM NaCl, 10 mM MgCl2, 0.1% Tween-20, 0.1% Pluronic-F127, 5% DMSO) was applied. Measurements were carried out using blue LED color with 20% LED power and 40% MST power. The concentration of ShhN-EGFP was adjusted according to the fluorescence. Mean values and standard deviations were calculated from experiments performed at least in triplicate. Nanotemper analysis software V1.5.41 was applied to analyze data.
We used microscale thermophoresis (MST) to quantitatively measure binding constants between the compounds and ShhN (Table S5 and Figure S1). A ShhN-EGFP fusion protein was constructed, expressed, and purified from bacterial cells. In MST binding assays, ShhN-EGFP was kept at a constant concentration according to the fluorescence signal. Different concentrations of the molecules were tested and dissociation constants (Kd) were derived.

[3] = biological target: T2, ShhN (Homo sapiens, UniProt Q15465); test: NanoDSF thermal stability; type: binding; details: ShhN 0.2 mg/mL
T2 construct: PET-28(a)-human ShhN (Shh 24-197) plasmid; His (N); made in house; host or cells: Escherichia coli Rosetta (DE3)
Description: Measurements were performed using a Prometheus NT.48 instrument (NanoTemper Inc., Germany). ShhN was diluted to 0.2 mg/mL in buffer contained 10 mM HEPES, pH 7.4, 150 mM NaCl, and 5% DMSO. Measurements were carried out using 70% power with standard Prometheus NT.48 capillaries. The heating was 1.0°C/min from 20 to 95°C.
To gain further insight into the effects of inhibitors against ShhN, a NanoDSF experiment was conducted.

[4] = system: Gli1 mRNA expression in Ptch+/−p53−/− medulloblastoma cells; test: Real-time PCR of Gli1 mRNA in Ptch+/-p53-/- medulloblastoma cells; type: cell-based, mice; details: RT-qPCR, 36 h exposure, normalized to GUSB
Description: Ptch^+/−p53^−/− medulloblastoma cells were cultivated from spontaneous medulloblastoma developed by ptch^+/−; p53^−/− mice. All procedures were preapproved by the Animal Care and Use Committee of Fudan University and performed according to institutional policies. Briefly, medulloblastoma tissues were mechanically minced and digested by collagenase. The cells were routinely cultured using Neurobasal A medium (Invitrogen) plus B-27 supplement (Invitrogen), EGF 20 ng/mL (Invitrogen), bFGF 20 ng/mL (Invitrogen), non-essential amino acids, N-acetylcysteine 60 μg/mL. GDC-0449 was purchased from Biovision (Milpitas, CA). […]
Total RNA was extracted from cells using an RNAiso Plus Kit (TaKaRa, Dalian, China) according to the manufacturer's instructions and processed directly to cDNA by reverse transcription with a SuperScript III Kit (TaKaRa, Dalian, China). Semi-quantitative PCR amplification was conducted using Stratagene mx3005p (Agilent). All quantitative PCR amplifications were performed in triplicate with a SYBR Green Kit (TaKaRa, Dalian, China) in an iCycleriQ system (Bio-Rad, Hercules, CA). […]
Levels of the Shh-induced transcription factor Gli1 are higher in Ptch^+/−p53^−/− medulloblastoma from mice than in control tissues as a result of increased Hh signaling activity (Wetmore et al., [2001]). […] We measured the expression of Gli1 mRNA using RT-qPCR (Figure 2). […]

[5] = system: Shh; details: Shh inhibitory activity in cellular assays, ref Stanton et al., 2009 (Table 1 prints ref. 14), cited from earlier work
[6] = MST, ShhN-EGFP, mean±SD for three independent experiments, read-out: Kd

T1 sequence (Q15465 24-197): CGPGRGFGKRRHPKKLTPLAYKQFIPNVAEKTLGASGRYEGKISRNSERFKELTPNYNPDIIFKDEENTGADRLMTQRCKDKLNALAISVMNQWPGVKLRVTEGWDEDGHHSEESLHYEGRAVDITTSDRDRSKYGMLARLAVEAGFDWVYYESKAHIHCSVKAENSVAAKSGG
T2 sequence (Q15465 24-197): as above

Row | Compound | IC50 [1] | inhibition at 5 µM [1] | further results
1 | Cc1cc(C)c(CSC2=NCCN2)c(C)c1CSC1=NCCN1 [Compound 1] | 2300 ± 200 nM |  | Kd [2, 6]: 7000 ± 800 nM
2 | OC(CNCc1ccc2c(c1)OCO2)COc1ccc(-c2csnn2)cc1 (stereo not drawn) [Compound 2] | 1700 ± 100 nM |  | Kd [2]: 8400 ± 900 nM
3 | c1ccc(COC(CNC2CCCCC2)CNC2CCCCC2)cc1 [Compound 3] | 2200 ± 200 nM |  | Kd [2, 6]: 3100 ± 300 nM
4 | CCN(CC)S(=O)(=O)c1ccc(C(=O)Nc2sc3c(c2C(N)=O)CCN(C)C3)cc1 [Compound 4] | 2700 ± 200 nM |  | MST binding signal / dose-response (in words) ([2]; ShhN-EGFP): did not reach saturation
5 | OCCCNCC(O)Cn1c2ccc(Br)cc2c2cc(Br)ccc21 (stereo not drawn) [Compound 5] | 2000 ± 300 nM |  | Kd [2]: 4500 ± 600 nM
6 | CCOC(=O)c1c(C)n(-c2ccc(C)cc2)c2ccc(OCC(O)CNCCCO)cc12 (stereo not drawn) [Compound 6] | 1400 ± 400 nM |  | Kd [2, 6]: 5800 ± 500 nM
7 | Nc1nc(NCCCN2CCOCC2)nc(NCc2ccco2)c1[N+](=O)[O-] [Compound 7] | 2200 ± 300 nM |  | Kd [2, 6]: 6200 ± 600 nM
8 | Nc1nc(NCC2CCCO2)nc(NCc2ccco2)c1[N+](=O)[O-] (stereo not drawn) [Compound 7_2d2] | 3200 ± 700 nM | 94 ± 4% | 
9 | Nc1nc(NCCN2CCOCC2)nc(NCc2ccco2)c1[N+](=O)[O-] [Compound 7_2d3] | 2600 ± 300 nM | 68 ± 12% | 
10 | CCOc1ccc(Nc2nc(N)c([N+](=O)[O-])c(NCc3ccco3)n2)cc1 [Compound 7_2d6] | 2000 ± 800 nM | 97 ± 7% | 
11 | Nc1nc(Nc2ccc(Cl)cc2)nc(NCc2ccco2)c1[N+](=O)[O-] [Compound 7_2d7] | 2100 ± 200 nM | 102 ± 3% | 
12 | Nc1nc(Nc2cccc(F)c2)nc(NCc2ccco2)c1[N+](=O)[O-] [Compound 7_2d8] | 2400 ± 400 nM | 101 ± 8% | 
13 | Nc1nc(Nc2ccccc2F)nc(NCc2ccco2)c1[N+](=O)[O-] [Compound 7_2d9] | 5900 ± 1700 nM | 94 ± 3% | 
14 | c1ccc(Nc2nc(NC3CCCCCC3)nc3c2cnn3-c2ccccc2)cc1 [Compound 7_3d2] | 1600 ± 600 nM | 93 ± 1% | 
15 | CCN(CC)CCNc1nc(Nc2cccc(Cl)c2)c2cnn(-c3ccccc3)c2n1 [Compound 7_3d3] | ~400 nM | 107 ± 1% | Thermal stability of ShhN (in words) [3]: improved the thermal stability of ShhN better than 7
16 | CCN1CCN(c2nc(Nc3cccc(Cl)c3)c3cnn(-c4ccccc4)c3n2)CC1 [Compound 7_3d4] | 600 ± 100 nM | 105 ± 5% | 
17 | N#Cc1c(N)nc(NCCCN2CCOCC2)nc1-c1ccc(Cl)cc1 [Compound 7_3d11] | 1200 ± 200 nM |  | 
18 | CS(=O)(=O)c1ccc(C(=O)Nc2ccc(Cl)c(-c3ccccn3)c2)c(Cl)c1 [GDC-0449] |  |  | Relative mRNA expression of Gli1 (effect in words) [4]: positive control for inhibition of the expression of Gli1 mRNA
19 | O=C(C[C@@H]1C/C=C/CCC(=O)O[C@H](c2ccccc2)CNC1=O)NCc1ccc(Cl)cc1 [Robotnikinin] | 4400 ± 900 nM |  | Relative mRNA expression of Gli1 (effect in words) [4]: did not inhibit Gli1 mRNA expression; IC50 [5]: 15000 nM; IC50 ([5]; listed as robotnikinin): ~15000 nM
